Patent publication US9763973B2, “Agent for treating HTLV-I associated myelopathy” (NAGASAKI UNIVERSITY, priority 2011, dated 2017)
“And” between values parts separate entries of the source, which are not always exact repeats. Identical values can stand only once.

How the values were obtained:
[1] = test system: peripheral blood lymphoblastogenesis; assay: lymphoblastogenesis test (stimulation index to PHA), clinical test in HAM patients; type: in vivo, human
Description: (§1) Subject: 12 cases of HAM patients (9 females, 3 males, age; 49-77 years old, duration of illness; 3-52 years) (Table 1).
(§2) Test method: Sodium pentosan polysulfate was subcutaneously administered by 25 mg for the first time (0 week), 50 mg 1 week later, 100 mg once a week from the second week to the 7th week to the brachial region. The test medicament was used in 1 ml ampoule of sodium pentosan polysulfate (100 mg/ml) supplied by bene pharmaChem of Germany.
(§3) Test items: the subjective symptoms and neurological observations (including spasticity, gait time, time for descending stairs, motility dysfunction level and the like) were checked at the time of screening, week 0 (initial administration), week 8 from the start of treatment (week 1 after completion of treatment) and week 12 from the start of treatment (week 5 after completion of treatment). Similarly, general clinical tests, and immunological (serum soluble IL-2 receptor (sIL-2R), peripheral blood lymphoblastogenesis test) and virological tests (amount of peripheral blood HTLV-I provirus (real-time quantitative PCR method), anti-HTLV-I antibody titer) were performed.

[2] = test system: anti-HTLV-I antibody; assay: anti-HTLV-I antibody titer (PA method), clinical test in HAM patients; type: in vivo, human; conditions: start vs week 8, week 12 (Table 4)
Description: as §1, §2, §3

[3] = test system: HAM patients; assay: 30 m gait time, clinical test in HAM patients; type: in vivo, human; conditions: for 30 m gait: individual HAM cases, same s.c. regimen; for 30 m gait, mean value: mean of tested cases
Text: (§4) The main symptoms of HAM are motility/gait disorders and the like. As items for the clinical evaluation of these symptoms, lower leg motility function (walking time, time for descending stairs, spasticity, motility dysfunction level etc.) tests and the like can be mentioned. By evaluating these items before and after administration of pentosan polysulfate, the treatment effect of subcutaneous injection of pentosan polysulfate on HAM was verified.
as §1, §2, §3

[4] = test system: HAM patients; assay: 10 m gait time, clinical test in HAM patients; type: in vivo, human; conditions: for 10 m gait: individual HAM cases, same s.c. regimen; for 10 m gait, mean value: mean of tested cases
Text: as §4, §1, §2, §3

[5] = test system: HTLV-I; conditions: in vitro; non-patent documents 4-6; cited from earlier work
[6] = test system: HAM patients; assay: motility dysfunction level (Osame scale), clinical test in HAM patients; type: in vivo, human; conditions: 12 HAM cases; 0-13 scale; changes not found in other cases
Text: As regards the gait disorder due to HAM-related spastic paraplegia, the gait disorder in the present specification includes not only disorder in walking but also disorder in running and ascending and descending stairs, as well as wheelchair state and bedridden state due to gait function disorders. […]
as §3, with “performed. […]” for “performed.”

[7] = test system: HAM patients; assay: spasticity on modified Ashworth scale (MAS), clinical test in HAM patients; type: in vivo, human; conditions: individual HAM cases; same s.c. regimen; blank = spasticity absent from the start
Text: Spasticity is one type of hypertonia, and caused by an abnormal increase in the muscle stretch reflex. Clinically, spasticity is a speed-dependent resistance to stretch, which is defined to be the state wherein the muscle is excessively contracted due to the lack of suppression from the central nervous system, which finally leads to an increase in the reflection. As a measurement method of spasticity, the Ashworth scale is well known, and its modified version by Bohannon is often used clinically (modified Ashworth scale; Bohannon R W, Smith M B: Interrater reliability of a Modified Ashworth Scale of Muscle Spasticity. Phys Ther 67: 206-207, 1987). […]
as §3

[8] = test system: serum soluble IL-2 receptor (sIL-2R); assay: serum soluble IL-2 receptor (sIL-2R), clinical test in HAM patients; type: in vivo, human; conditions: for sIL-2R: individual HAM cases, same s.c. regimen
Description: as §1, §2, §3

[9] = test system: HTLV-I provirus; assay: amount of peripheral blood HTLV-I provirus (real-time quantitative PCR), clinical test in HAM patients; type: in vivo, human; conditions: for HTLV-I provirus amount, average: average of 12 cases, average at start 1268; for HTLV-I provirus amount: individual HAM cases, same s.c. regimen
Description: Therefore, for virological evaluation, the amount of peripheral blood HTLV-I provirus was monitored, immunological markers predicted to vary depending on a decrease in the provirus was simultaneously monitored, and the effect of pentosan polysulfate on HTLV-I was verified. In addition, the clinical effects (lower leg motility function etc.) were evaluated simultaneously with the measurement of the virus amount, and the correlation between a decrease in the virus amount and the clinical effect was confirmed. Furthermore, the amount of HTLV-I provirus was measured before and after administration of pentosan polysulfate, and a virus, amount decreasing effect of pentosan polysulfate was confirmed, whereby the possibility of providing a causal therapy was verified. Subject: 12 cases of HAM patients (9 females, 3 males, age; 49-77 years old, duration of illness; 3-52 years) (Table 1). Test method: Sodium pentosan polysulfate was subcutaneously administered by 25 mg for the first time (0 week), 50 mg 1 week later, 100 mg once a week from the second week to the 7th week to the brachial region. The test medicament was used in 1 ml ampoule of sodium pentosan polysulfate (100 mg/ml) supplied by bene pharmaChem of Germany.

[10] = test system: HAM patients; assay: time for descending stairs (10 stairs), clinical test in HAM patients; type: in vivo, human; conditions: for descending stairs (10 stairs): individual HAM cases, same s.c. regimen; for descending stairs, mean value: mean of tested cases
Text: as §4, §1, §2, §3

[11] = test system: HAM; conditions: recent case-control study; non-patent document 3; cited from earlier work
[12] = test system: HTLV-I provirus; conditions: anti-HTLV-I therapy with HDAC inhibitor; cited from earlier work
[13] = test system: HAM patients; conditions: in vivo test; non-patent documents 4 and 5; cited from earlier work

Compound: sodium pentosan polysulfate
- lymphoblastogenesis test (stimulation index to PHA) ([1]; individual HAM cases (table row = case no.), s.c. 25 mg wk 0, 50 mg wk 1, 100 mg weekly wk 2-7, week 8 from start): 9.2 and 12.4 and 4.7 and 7.9 and 16.3 and 14 and 13.3 and 9.4 and 3.7 and 9.7 and 11.9 and 8.2
- lymphoblastogenesis test (stimulation index to PHA) ([1]; individual HAM cases, same s.c. regimen, week 12 from start (week 5 after completion)): 6.1 and 7.1 and 6.7 and 15 and 18.1 and 24.7 and 17.2 and 9.3 and 4.9 and 9.2 and 12.2 and 6.9
- lymphoblastogenesis test, significance of change ([1]; start vs week 8, week 12 (Table 2)): significant difference was not observed
- anti-HTLV-I antibody test, significance of change [2]: significant difference was not observed
- 30 m gait ([3]; week 8): 22.1 s and 16.8 s and 52.3 s and 20.8 s and 26.7 s and 36.5 s and 20.5 s and 96.5 s and 41.6 s
- 30 m gait ([3]; week 12): 22 s and 16.6 s and 59.6 s and 19.8 s and 28.6 s and 38.1 s and 20.5 s and 97.5 s and 45.4 s
- 30 m gait, mean value ([3]; week 8, mean at start 41.7 (Table 7 in seconds)): 37.1
- 30 m gait, mean value ([3]; week 12, mean at start 41.7): 38.7
- 10 m gait ([4]; week 8): 7.5 s and 5.5 s and 15.8 s and 6.4 s and 8.9 s and 11.5 s and 6.5 s and 32.5 s and 13.9 s and 18.5 s
- 10 m gait ([4]; week 12): 7.1 s and 5.3 s and 16.9 s and 6.2 s and 9.7 s and 12.5 s and 6.5 s and 31.9 s and 15.8 s and 19.9 s
- 10 m gait, mean value ([4]; week 8, mean at start 14.7 (Table 6 in seconds)): 12.7
- 10 m gait, mean value ([4]; week 12, mean at start 14.7): 13.2
- HTLV-I infection inhibitory action [5]: very strong HTLV-I infection inhibitory action at a low dose as compared to heparin
- improvement in motility dysfunction level [6]: only in one case (from 6 to 5 in week 8)
- improvement of spasticity (evaluated on modified Ashworth scale (MAS)) [7]: (+) (evaluated (+) when either lower leg improved by 1 grade or more)
- sIL-2R ([8]; week 2): 511 pg/mL and 1462 pg/mL and 1086 pg/mL and 933 pg/mL and 1475 pg/mL and 1741 pg/mL and 1524 pg/mL and 1405 pg/mL and 2264 pg/mL and 1256 pg/mL and 1688 pg/mL and 1474 pg/mL
- sIL-2R ([8]; week 8): 577 pg/mL and 1482 pg/mL and 904 pg/mL and 1152 pg/mL and 1475 pg/mL and 1551 pg/mL and 1460 pg/mL and 1954 pg/mL and 2420 pg/mL and 1452 pg/mL and 1774 pg/mL and 1964 pg/mL
- sIL-2R ([8]; week 12): 627 pg/mL and 1357 pg/mL and 914 pg/mL and 1073 pg/mL and 1557 pg/mL and 1706 pg/mL and 1716 pg/mL and 1864 pg/mL and 2516 pg/mL and 1480 pg/mL and 1882 pg/mL and 1774 pg/mL
- soluble IL-2 receptor (sIL-2R) test, significance of change ([8]; start vs weeks 2, 8, 12 (Table 3)): significant difference was not observed
- HTLV-I provirus amount, significance of change ([9]; all 12 cases, week 8 from start of treatment): no significant difference
- average decrease in amount of HTLV-I provirus ([9]; all 12 cases, week 8 from start of treatment vs start): about 9%
- HTLV-I provirus amount, average ([9]; week 8): 1153 copy number/10^4 PBMC
- HTLV-I provirus amount, average ([9]; week 12): 1241 copy number/10^4 PBMC
- HTLV-I provirus amount ([9]; week 8): 1140 copy number/10^4 PBMC and 648 copy number/10^4 PBMC and 699 copy number/10^4 PBMC and 503 copy number/10^4 PBMC and 999 copy number/10^4 PBMC and 2149 copy number/10^4 PBMC and 479 copy number/10^4 PBMC and 830 copy number/10^4 PBMC and 2030 copy number/10^4 PBMC and 1621 copy number/10^4 PBMC and 837 copy number/10^4 PBMC and 1900 copy number/10^4 PBMC
- HTLV-I provirus amount ([9]; week 12): 1750 copy number/10^4 PBMC and 668 copy number/10^4 PBMC and 697 copy number/10^4 PBMC and 471 copy number/10^4 PBMC and 1032 copy number/10^4 PBMC and 2052 copy number/10^4 PBMC and 460 copy number/10^4 PBMC and 767 copy number/10^4 PBMC and 2380 copy number/10^4 PBMC and 1971 copy number/10^4 PBMC and 853 copy number/10^4 PBMC and 1794 copy number/10^4 PBMC
- HTLV-I provirus amount, course after completion of administration ([9]; week 5 after completion of administration (week 12)): a tendency of returning to the amount at the start of the treatment
- descending stairs (10 stairs) ([10]; week 8): 4.8 seconds (2×) and 4 seconds and 17.5 seconds and 9.1 seconds (2×) and 7.4 seconds and 4.1 seconds
- descending stairs (10 stairs) ([10]; week 12): 4.9 seconds and 4 seconds (3×) and 21.2 seconds and 12.4 seconds and 8.7 seconds and 8.9 seconds
- descending stairs, mean value ([10]; week 8, mean at start 9.3 (Table 8 in seconds)): 7.6
- descending stairs, mean value ([10]; week 12, mean at start 9.3): 8.5

Compound: zidovudine+lamivudine
- effectiveness as anti-HTLV-I therapy for HAM [11]: effectiveness thereof was not verified

Compound: CCCC(CCC)C(=O)O [valproic acid]
- effect on amount of peripheral blood HTLV-I provirus [12]: transiently and markedly increases the amount of peripheral blood HTLV-I provirus

Compound: heparin
- HTLV-I infection inhibitory action [5]: shows an HTLV-I infection inhibitory action
- clinical effectiveness for HAM patients [13]: clinically effective for HAM patients
